# Measurements reported in patent publication US7893056B2, “Peptide deformylase inhibitors” (GlaxoSmithKline LLC, priority 2007, dated 2011).
# Values joined by “and” are separate entries in the source; they are usually repeats but may differ in a detail not shown here. Identical values can stand only once.
# Key:
# Experiment in all cases: Antimicrobial activity assay, broth microdilution MIC
# Type in all cases: cell-based
# [1] = tested on: Streptococcus pneumoniae Ery2; conditions: Examples 24 and 63: median of all results obtained, others: individual runs, read-out: MIC, S. pneumoniae ERY2
# Procedure: (§1) Whole-cell antimicrobial activity was determined by broth microdilution using the Clinical and Laboratory Standards Institute (CLSI, formerly NCCLS) recommended methodology (NCCLS Document M7-A6, “Methods for Dilution Susceptibility Tests for Bacteria that Grow Aerobically—Approved Standard Sixth Edition”, 2003). Compounds were tested in serial two-fold dilutions ranging from 64 to 0.06 μg/mL. A panel of 12 strains was evaluated in the assay. This panel consisted of the following laboratory strains: Staphylococcus aureus Oxford, Staphylococcus aureus WCUH29, Enterococcus faecalis 1, Enterococcus faecalis 7, Haemophilus influenzae Q1, Haemophilus influenzae NEMC1, Moraxella catarrhalis 1502, Streptococcus pneumoniae 1629, Streptococcus pneumoniae N1387, Streptococcus pneumoniae Ery2, Escherichia coli 7623 (AcrABEFD+) and Escherichia coli 120 (AcrAB−). The minimum inhibitory concentration (MIC) was determined as the lowest concentration of compound that inhibited visible growth. A mirror reader was used to assist in determining the MIC endpoint.
# [2] = tested on: Staphylococcus aureus WCUH29; conditions: others: individual runs; for MIC: Staphylococcus aureus, WCUH29, Examples 24 and 63: median of all results obtained, read-out: MIC, S. aureus WCUH29
# Procedure: as §1
# [3] = tested on: Moraxella catarrhalis 1502; conditions: others: individual runs; for MIC: Moraxella catarrhalis, 1502, Examples 24 and 63: median of all results obtained
# Procedure: as §1
# Enterococcus faecalis 1 = conditions: others: individual runs; for MIC: Enterococcus faecalis, 1, Examples 24 and 63: median of all results obtained, read-out: MIC, E. faecalis I; for MIC, E. faecalis I: Examples 24 and 63: median of all results obtained
# Procedure: as §1
# [4] = tested on: Streptococcus pneumoniae N1387; conditions: Examples 24 and 63: median of all results obtained, others: individual runs, read-out: MIC, S. pneumoniae N1387
# Procedure: as §1
# Enterococcus faecalis 7 = conditions: others: individual runs; for MIC: Enterococcus faecalis, 7, Examples 24 and 63: median of all results obtained, read-out: MIC, E. faecalis 7; for MIC, E. faecalis 7: Examples 24 and 63: median of all results obtained
# Procedure: as §1
# [5] = tested on: Streptococcus pneumoniae 1629; conditions: Examples 24 and 63: median of all results obtained, others: individual runs, read-out: MIC, S. pneumoniae 1629
# Procedure: as §1
# [6] = tested on: Staphylococcus aureus Oxford; conditions: Examples 24 and 63: median of all results obtained, others: individual runs; for MIC: Staphylococcus aureus, read-out: MIC, S. aureus Oxford
# Procedure: as §1
# [7] = tested on: Escherichia coli 7623 (AcrABEFD+); conditions: Examples 24 and 63: median of all results obtained; others: individual runs
# Procedure: as §1
# [8] = Examples 24 and 63: median of all results obtained
SMILES,MIC [1] [µg/mL],MIC [2] [µg/mL],MIC [3] [µg/mL],MIC (Enterococcus faecalis 1) [µg/mL],MIC [4] [µg/mL],MIC (Enterococcus faecalis 7) [µg/mL],MIC [5] [µg/mL],MIC [6] [µg/mL],"MIC, E. faecalis I (Enterococcus faecalis 1)","MIC, M. catarrhalis 1502 [3, 8]","MIC, E. faecalis 7 (Enterococcus faecalis 7)","MIC, S. aureus Oxford [6] [µg/mL]","MIC, E. coli 7623 AcrABEFD+ [7]","MIC, S. aureus WCUH29 [2, 8] [µg/mL]"
"Cc1nc(NNC(=O)[C@H](CC2CCCC2)CN(O)C=O)c(F)c(N2CCN3CCOC[C@@H]3C2)n1 [Example 24, [(2R)-2-(Cyclopentylmethyl)-3-(2-{5-fluoro-6-[(9aS)-hexahydropyrazino[2,1-c][1,4]oxazin-8(1H)-yl]-2-methyl-4-pyrimidinyl}hydrazino)-3-oxopropyl]hydroxyformamide]",0.375,0.375,0.375,,,,,,,,,,,
"C[C@@H]1CN(C)CCN1c1nc(Cl)nc(NNC(=O)[C@H](CC2CCCC2)CN(O)C=O)c1F [Example 63, [(2R)-3-(2-{2-Chloro-6-[(2R)-2,4-dimethyl-1-piperazinyl]-5-fluoro-4-pyrimidinyl}hydrazino)-2-(cyclopentylmethyl)-3-oxopropyl]hydroxyformamide]",0.25,0.5,0.125,16,0.25,64,0.5,1,,,,,,
"Cc1nc(NNC(=O)[C@H](CC2CCCC2)CN(O)C=O)c(F)c(N2CCN(C)C[C@H]2C)n1 [Example 109, [(2R)-2-(Cyclopentylmethyl)-3-(2-{6-[(2R)-2,4-dimethyl-1-piperazinyl]-5-fluoro-2-methyl-4-pyrimidinyl}hydrazino)-3-oxopropyl]hydroxyformamide]",0.25,0.5,0.25,64,0.25,> 64,0.5,2,"64, >64 μg/ml",,,,,
"CN1CCN(c2nc(Cl)nc(NNC(=O)[C@H](CC3CCCC3)CN(O)C=O)c2F)CC12CC2 [Example 172, [(2R)-3-{2-[2-Chloro-5-fluoro-6-(4-methyl-4,7-diazaspiro[2.5]oct-7-yl)-4-pyrimidinyl]hydrazino}-2-(cyclopentylmethyl)-3-oxopropyl]hydroxyformamide]",0.125 to 0.25,0.5,,16,0.125,,0.5,1,,≤ 0.06 µg/mL and 0.125 µg/mL,8 µg/mL and 64 µg/mL,2,4 µg/mL and 16 µg/mL,
"Cc1nc(NNC(=O)[C@H](CC2CCCC2)CN(O)C=O)c(F)c(N2CCN(C)C3(CC3)C2)n1 [Example 275, ((2R)-2-(Cyclopentylmethyl)-3-{2-[5-fluoro-2-methyl-6-(4-methyl-4,7-diazaspiro[2.5]oct-7-yl)-4-pyrimidinyl]hydrazino}-3-oxopropyl)hydroxyformamide]",0.5,0.5,0.25,32,0.5,,1,2,64 µg/mL,,16 µg/mL and 64 µg/mL,4,4 µg/mL and 16 µg/mL,1
